Assay results as given in patent publication US9056923B2, “Mimetic peptides derived from collagen type IV and their use for treating angiogenesis- and lymphagiogenesis-dependent diseases” (THE JOHNS HOPKINS UNIVERSITY, priority 2010, dated 2015).
Ends that are not written are not given here.

Legend:
[1] = tested on: MDA-MB-231-luc-D3H2LN cells; assay: Tail vein assay of cancer metastasis (lung metastasis); format: in vivo; conditions: luciferase-transfected MDA-MB-231 cells in nude mice, IVIS
Experimental: The tail vein assay of cancer metastasis protocol from Current Protocols of Cell Biology was used to measure the effect of SP2024 on lung metastasis (Elkin and Vlodaysky, 2001). […] of 5×10^5 cells/mL luciferase-transfected MDA-MB-231-luc-D3H2LN (Caliper Biosciences) cell suspension was slowly injected into nude mice (nude mice are easier to image because of their lack of fur). Two hours before cell inoculation vehicle or 10 mg/kg SP2024 were administered subcutaneously on a daily basis. Bioluminescence to detect metastasis was measured by IVIS imaging (Caliper Biosciences) via IP injection of 150 mg/kg D-luciferin.

MDA-MB-231 tumors = assay: MRI of tumor vascular volume and permeability surface-area product; format: in vivo, mice; conditions: vs control
Experimental: MRI of vascular volume and permeability surface-area product (PSP) were determined as follows. Mice with volume-matched tumors were treated with SP2024 or vehicle and imaged 24 h post treatment. The mice were anesthetized and the tail vein was catheterized before placing the animal in the spectrometer. All imaging studies were performed on a 4.7 T Bruker Avance spectrometer, as previously described (Raman et al., 2006; Bhujwalla et al., 2001) using a home-built solenoid coil placed around the tumor. Briefly, multislice relaxation rate (1/T1) maps were obtained by a saturation recovery method combined with fast T1 SNAPSHOT-FLASH imaging (flip angle of 10°, echo time of 2 ms). […] The detectable areas of vascular volume and permeability as well as absolute values of vascular volume and permeability were analyzed. […] Volume fractions of the regions were determined using the histogram analysis of the volume data. […] Statistical significance (p<0.05) within each experiment using the independent replicates was assessed using standard statistical assessments such as Student's t-test and ANOVA accompanied by Dunnett's test if different sets of data were compared to one group.

MDA-MB-231 xenograft = assay: MDA-MB-231 orthotopic breast tumor xenograft; format: in vivo, SCID mice
Experimental: For primary tumor inhibition studies, 1−2×10^6 tumor cells were injected into 4-6 wk old female SCID mice. After the tumors reached a size of 100 mm^3 the animals were randomized into groups of 10 animals each. The animals were treated with vehicle, SP2012, SP2000, or SP2024. The peptides were administered subcutaneously daily. Dosing was continued for 3 or 4 weeks and tumor sizes were measured every 3 days using calipers. The tumor volume was estimated using the formula V=a^2b/2 where a and b are the smaller and larger diameters.
For the tumor xenograft assay, animals were housed and treated according to the approved animal protocol of the Institutional Care and Use Committee at Johns Hopkins Medical Institution (JHMI). Orthotopic breast tumors were initiated in SCID mice using MDA-MB-231 cells. 2×10^6 cells per 100 μL aliquot of single cell suspension were injected in the breast mannary fat pad. Tumors reached volumes of 75 mm^3 to 100 mm^3 in approximately 14-21 days. Mice were randomized and arranged in groups (8 mice per group) with similar tumor volumes (no statistical difference among averages) and treatment was commenced. Peptides were administered once per day intraperitoneally (i.p.) at doses of 10 mg/kg (subcutaneous delivery was also tested with certain peptides). Paclitaxel was administered at 5 mg/kg once a week, and to maintain the daily treatment regime PBS was administered on the non-treatment days. Tumors were measured every fourth day using calipers and the tumor volume was calculated using the formula V=ab^2/2, where a is the larger diameter and b is the smaller diameter.

[2] = tested on: VEGF mediated retinal neovascularization; assay: Rho/VEGF transgenic mice model of retinal neovascularization; format: in vivo; conditions: 0.01, 0.1, or 1 μg into the mouse eye
Experimental: The ocular Rho/VEGF transgenic mice model of wet age-related macular degeneration also was used to test some of the peptides. Transgenic mice in which the rhodopsin promoter drives expression of VEGF in photoreceptors have the onset of VEGF production at P7 and develop extensive NV along the outer surface of the retina by P21 (Okamoto et al., 1997; To be et al., 1998). Mice hemizygous for the transgene (n=15 for each dose) were given an intraocular injection of 1 μl of PBS containing 0.01, 0.1, or 1 μg of peptide or scramble peptide in one eye at P7 and P14 and at P21 the mice were anesthetized, perfused with fluorescein-labeled dextran, and the total area of neovascularization on the outer surface of the retina was measured on retinal flat mounts by image analysis as above.

[3] = tested on: lymphatic endothelial cells (LEC); assay: LEC migration assay; format: cell-based
Experimental: The inhibitory potential of the peptides was measured using a real time migration assay system based on electrical impedance (RT-CIM, ACEA Biosciences, CA). CIM 16 well plates (Roche, 05665817001) are composed of a top and bottom chamber separated by a microporous (8 μm) polycarbonate membrane. The membrane was coated with fibronectin (20 μg/mL), and 45,000 cells/well in serum free media with or without peptides were added to the top compartment. Media with chemoattractant (i.e., fully supplemented EBM-2) was added to the bottom compartment of the chamber and the plate was incubated at 37° C. for 20 hours. The sensors integrated on the bottom side of the membrane monitor and continuously record changes in impedance as the cells move through the membrane. The RT-CIM technology allows for easy quantification of cell migration by monitoring the cell index derived from the measured impedances. Assays were performed in at least two independent replicates and each replicate was performed using two experimental duplicates.

LRRFSTMPFMFININNVINF-NH2 [SP2024]
lung metastasis [1]: inhibits lung metastasis | relative vascular volume (MDA-MB-231 tumors): reduced relative vascular volume | tumor permeability-surface area product (MDA-MB-231 tumors): reduced tumor permeability-surface area product | suppression of tumor growth (MDA-MB-231 xenograft; MDA-MB-231 xenograft in mice, 10 mg/kg daily): inhibited tumor growth significantly over the control | MDA-MB-231 xenograft inhibition (MDA-MB-231 xenograft; mice): Active | area of retinal neovascularization [2]: generally decreased | inhibition of migration of LEC [3]: strong
